Source: patent US20240025863A1, “SOS1 PROTEIN DEGRADERS, PHARMACEUTICAL COMPOSITIONS THEREOF, AND THEIR THERAPEUTIC APPLICATIONS” (BioTheryX, Inc., priority 2020, published 2024)

Key:
Assay type in all cases: cell-based
Lovo cells (G13D) = test: Cell viability assay (CellTiter-Glo), Lovo cells; conditions: Homo sapiens, 72 h; Lovo cells, 3 days incubation, CellTiter-Glo luminescence; read-out: Inhibition of Cancerous Cells IC50 Lovo (G13D)
Description: (§1) H358, H23, SW48, and AsPC-1 cells were cultured in RPMI 1640 media supplemented with 10% fetal bovine serum, streptomycin, and penicillin. Lovo and SW480 cells were cultured in DMEM media supplemented with 10% fetal bovine serum, streptomycin, and penicillin. The cell lines were plated in their respective medium supplemented with 2.5% fetal bovine serum, streptomycin, and penicillin. All cell lines were plated in white walled 96-well plates at 2,000 cells/well or 384-well plates at 500 cells/well, except Lovo, which were plated at 4,000 or 1,000 cells/well, respectively. The cells were incubated in DMSO (control) or a compound for 3 days at 37° C. under 5% CO2. A CELLTITER-GLO® reagent (100 μL) was then added to each well. After a 10 min incubation with shaking, luminescence was measured using an ENVISION® multimode plate reader.

SW480 cells (G12V) = test: Cell viability assay (CellTiter-Glo), SW480 cells; conditions: Homo sapiens, 72 h; SW480 cells, 3 days incubation, CellTiter-Glo luminescence; read-out: Inhibition of Cancerous Cells IC50 SW480 (G12V)
Description: as §1

SW48 cells (wt) = test: Cell viability assay (CellTiter-Glo), SW48 cells; conditions: Homo sapiens, 72 h; SW48 cells, 3 days incubation, CellTiter-Glo luminescence; read-out: Inhibition of Cancerous Cells IC50 SW48 (wt)
Description: as §1

H358 cells (G12C) = test: Cell viability assay (CellTiter-Glo), H358 cells; conditions: Homo sapiens, NCI-H358, 72 h; H358 cells, 3 days incubation, CellTiter-Glo luminescence; read-out: Inhibition of Cancerous Cells IC50 H358 (G12C)
Description: as §1

Row | Structure (SMILES) | IC50 (Lovo cells (G13D)) [nM] | IC50 (SW480 cells (G12V)) [nM] | IC50 (SW48 cells (wt)) [nM] | IC50 (H358 cells (G12C)) [nM]
1 | COc1cc2c(N[C@H](C)c3cccc(Br)c3)nc(C)nc2cc1OCCCCCCCCC(=O)N1CCC(CN2CCN(c3cc4c(cc3F)C(=O)N(C3CCC(=O)NC3=O)C4=O)CC2)CC1 (stereo partly drawn) [Compound A34, 5-(4-((1-(9-((4-(((R)-1-(3-Bromophenyl)ethyl)amino)-6-methoxy-2-methyl-quinazolin-7-yl)oxy)nonanoyl)piperidin-4-yl)methyl)piperazin-1-yl)-2-(2,6-dioxopiperidin-3-yl)-6-fluoroisoindoline-1,3-dione] | 300 | 640 | 3400 | > 10000
2 | COc1cc2c(N[C@H](C)c3cccc(Br)c3)nc(C)nc2cc1OCCCCCCCCCCCCC(=O)N[C@H](C(=O)N1C[C@H](O)C[C@H]1C(=O)NCc1ccc(-c2scnc2C)cc1)C(C)(C)C [Compound D4, (2S,4R)-1-((S)-2-(13-((4-(((R)-1-(3-Bromophenyl)ethyl)amino)-6-methoxy-2-methylquinazolin-7-yl)oxy)tridecanamido)-3,3-dimethylbutanoyl)-4-hydroxy-N-(4-(4-methylthiazol-5-yl)benzyl)pyrrolidine-2-carboxamide] | > 10000 | 2700 | > 10000 | > 10000
3 | COc1cc2c(N[C@H](C)c3cccc(Br)c3)nc(C)nc2cc1OCCCCCCC(=O)N[C@H](C(=O)N1C[C@H](O)C[C@H]1C(=O)NCc1ccc(-c2scnc2C)cc1)C(C)(C)C [Compound D1, (2S,4R)-1-((S)-2-(7-((4-(((R)-1-(3-Bromophenyl)ethyl)amino)-6-methoxy-2-methylquinazolin-7-yl)oxy)heptanamido)-3,3-dimethylbutanoyl)-4-hydroxy-N-(4-(4-methyl-thiazol-5-yl)benzyl)pyrrolidine-2-carboxamide] | 6400 | 1300 | 7900 | 1600
4 | COc1cc2c(N[C@H](C)c3cccc(Br)c3)nc(C)nc2cc1OCCCCCCCCCC(=O)NCc1scc2c1CN(C1CCC(=O)NC1=O)C2=O (stereo partly drawn) [Compound A39, 10-((4-(((R)-1-(3-Bromophenyl)ethyl)amino)-6-methoxy-2-methylquinazolin-7-yl)oxy)-N-((5-(2,6-dioxopiperidin-3-yl)-4-oxo-5,6-dihydro-4H-thieno[3,4-c]pyrrol-1-yl)-methyl)decanamide] | 790 | 2600 | 210 | 680
5 | COc1cc2c(N[C@H](C)c3cccc(Br)c3)nc(C)nc2cc1OCCCCCCCCC(=O)NCc1ccc2c(c1)CN(C1CCC(=O)NC1=O)C2=O (stereo partly drawn) [Compound A9, 9-((4-(((R)-1-(3-Bromophenyl)ethyl)amino)-6-methoxy-2-methylquinazolin-7-yl)oxy)-N-((2-(2,6-dioxopiperidin-3-yl)-1-oxoisoindolin-5-yl)methyl)nonanamide] | 47 | 1200 | 22 | 820
6 | COc1cc2c(N[C@H](C)c3cccc(Br)c3)nc(C)nc2cc1OCCCCCCNC(=O)[C@H](CC(C)C)NC(=O)[C@@H](O)[C@H](N)Cc1ccccc1 [Compound B6, (S)-2-((2S,3R)-3-amino-2-hydroxy-4-phenylbutanamido)-N-(6-((4-(((R)-1-(3-bromophenyl)ethyl)amino)-6-methoxy-2-methylquinazolin-7-yl)oxy)hexyl)-4-methylpentanamide] | 1000 | 660 | 680 | 1200
7 | COc1ccc(C2=N[C@@H](c3ccc(Cl)cc3)[C@@H](c3ccc(Cl)cc3)N2C(=O)N2CCN(CC(=O)NCCCCCCCCOc3cc4nc(C)nc(N[C@H](C)c5cccc(Br)c5)c4cc3OC)CC2)c(OC(C)C)c1 [Compound C4, 2-(4-((4S,5R)-4,5-bis(4-chlorophenyl)-2-(2-isopropoxy-4-methoxyphenyl)-4,5-dihydro-1H-imidazole-1-carbonyl)piperazin-1-yl)-N-(8-((4-(((R)-1-(3-bromophenyl)ethyl)-amino)-6-methoxy-2-methylquinazolin-7-yl)oxy)octyl)acetamide] | > 10000 | > 10000 | > 10000 | > 10000
8 | COc1cc2c(N[C@H](C)c3cccc(Br)c3)nc(C)nc2cc1OCCCCCCCCCCC(=O)N[C@H](C(=O)N1C[C@H](O)C[C@H]1C(=O)NCc1ccc(-c2scnc2C)cc1)C(C)(C)C [Compound D3, (2S,4R)-1-((S)-2-(11-((4-(((R)-1-(3-Bromophenyl)ethyl)amino)-6-methoxy-2-methylquinazolin-7-yl)oxy)undecanamido)-3,3-dimethylbutanoyl)-4-hydroxy-N-(4-(4-methyl-thiazol-5-yl)benzyl)pyrrolidine-2-carboxamide] | > 10000 | > 10000 | > 10000 | > 10000
9 | COc1cc2c(N[C@H](C)c3cccc(Br)c3)nc(C)nc2cc1OCCCCCCCCN1CCC(c2cc3c(cc2F)C(=O)N(C2CCC(=O)NC2=O)C3)CC1 (stereo partly drawn) [Compound A50, 3-(5-(1-(8-((4-(((R)-1-(3-Bromophenyl)ethyl)amino)-6-methoxy-2-methyl-quinazolin-7-yl)oxy)octyl)piperidin-4-yl)-6-fluoro-1-oxoisoindolin-2-yl)piperidine-2,6-dione] | 430 | 470 | 790 | 960
10 | CNCc1ccccc1-c1csc([C@H](C)Nc2nc(C)nc3c(CCCCCCCN4CCC(c5cc(F)cc6c5CN(C5CCC(=O)NC5=O)C6=O)CC4)c(OC)c(OC)cc23)c1 (stereo partly drawn) [Compound A56, 3-(4-(1-(7-(6,7-Dimethoxy-2-methyl-4-(((S)-1-(4-(2-((methylamino)methyl)-phenyl)thiophen-2-yl)ethyl)amino)quinazolin-8-yl)heptyl)piperidin-4-yl)-6-fluoro-1-oxoisoindolin-2-yl)piperidine-2,6-dione] | 150 | 260 | 190 | 360
11 | COc1cc2c(N[C@H](C)c3cccc(Br)c3)nc(C)nc2cc1OCCCCN1CCN(C(=O)CNc2cc(F)cc3c2CN(C2CCC(=O)NC2=O)C3=O)CC1 (stereo partly drawn) [Compound A57, 3-(4-((2-(4-(4-((4-(((R)-1-(3-Bromophenyl)ethyl)amino)-6-methoxy-2-methyl-quinazolin-7-yl)oxy)butyl)piperazin-1-yl)-2-oxoethyl)amino)-6-fluoro-1-oxoisoindolin-2-yl)piperidine-2,6-dione] | 900 | 5200 | 2900 | 3300
12 | COc1cc2c(N[C@H](C)c3cccc(Br)c3)nc(C)nc2cc1OCCCCCCCCCCN1CCC(c2cc(F)cc3c2CN(C2CCC(=O)NC2=O)C3=O)CC1 (stereo partly drawn) [Compound A51, 3-(4-(1-(10-((4-(((R)-1-(3-Bromophenyl)ethyl)amino)-6-methoxy-2-methyl-quinazolin-7-yl)oxy)decyl)piperidin-4-yl)-6-fluoro-1-oxoisoindolin-2-yl)piperidine-2,6-dione] | 160 | 640 | 290 | 390
13 | COc1cc2c(N[C@H](C)c3cccc(Br)c3)nc(C)nc2cc1OCCCCCCCC(=O)NCc1scc2c1CN(C1CCC(=O)NC1=O)C2=O (stereo partly drawn) [Compound A38, 8-((4-(((R)-1-(3-Bromophenyl)ethyl)amino)-6-methoxy-2-methylquinazolin-7-yl)oxy)-N-((5-(2,6-dioxopiperidin-3-yl)-4-oxo-5,6-dihydro-4H-thieno[3,4-c]pyrrol-1-yl)methyl)-octanamide] | 6100 | 6400 | 7900 | 6300
14 | COc1cc2c(N[C@H](C)c3cccc(Br)c3)nc(C)nc2cc1OCCCCCC(=O)NCc1scc2c1CN(C1CCC(=O)NC1=O)C2=O (stereo partly drawn) [Compound A37, 6-((4-(((R)-1-(3-Bromophenyl)ethyl)amino)-6-methoxy-2-methylquinazolin-7-yl)oxy)-N-((5-(2,6-dioxopiperidin-3-yl)-4-oxo-5,6-dihydro-4H-thieno[3,4-c]pyrrol-1-yl)methyl)-hexanamide] | > 10000 | > 10000 | > 10000 | > 10000
15 | CNCc1ccccc1-c1csc([C@H](C)Nc2nc(C)nc3cc(OCCCCCCCN4CCC(c5cc6c(cc5F)C(=O)N(C5CCC(=O)NC5=O)C6)CC4)c(OC)cc23)c1 (stereo partly drawn) [Compound A26, 3-(6-Fluoro-5-(1-(7-((6-methoxy-2-methyl-4-(((S)-1-(4-(2-((methylamino)-methyl)phenyl)thiophen-2-yl)ethyl)amino)quinazolin-7-yl)oxy)heptyl)piperidin-4-yl)-1-oxoisoindolin-2-yl)piperidine-2,6-dione] | 360 | 400 | 420 | 570
16 | COc1cc2c(N[C@H](C)c3cccc(Br)c3)nc(C)nc2cc1OCCCCCCCCCCCOc1cc(-c2scnc2C)ccc1CNC(=O)[C@@H]1C[C@@H](O)CN1C(=O)[C@@H](NC(C)=O)C(C)(C)C [Compound D13, (2S,4R)-1-((S)-2-Acetamido-3,3-dimethylbutanoyl)-N-(2-((11-((4-(((R)-1-(3-bromophenyl)ethyl)amino)-6-methoxy-2-methylquinazolin-7-yl)oxy)undecyl)oxy)-4-(4-methylthiazol-5-yl)benzyl)-4-hydroxypyrrolidine-2-carboxamide] | 1600 | 2900 | > 10000 | > 10000
